Experimental data as given in article PMC9781916, “Antipsychotic- and Anxiolytic-like Properties of a Multimodal Compound JJGW08 in Rodents” (International Journal of Molecular Sciences, 2022).

Key:
rats = assay: Open field test after MK-801 administration in rats (MK-801-induced hyperlocomotion); type: in vivo; settings: doses 1–30 mg/kg ip, MK-801 0.3 mg/kg ip
Experimental: Figure 4 The effect of JJGW08 and clozapine on MK-801-induced hyperlocomotion in rats. After the habituation period (30 min, 24 h before the test), locomotor activity was measured individually for each animal in the special apparatus. The walked distance (cm) was monitored at 10-min intervals for 30 min, using a computerized system that tracked the animals’ movement and behavior. JJGW08 and clozapine were administered intraperitoneally (ip) 30 or 60 min before the test, respectively, while MK-801 (0.3 mg/kg) was administered ip 15 min before the start of the experiment. The control group received 0.9% NaCl solution (ip) (or 1% Tween (ip) for clozapine) and MK-801 (0.3 mg/kg, ip). Values are expressed as mean ± SD, n = 7–8 rats per group. Statistical analysis: one-way ANOVA (Newman–Keuls post hoc) * p < 0.05, ** p < 0.01, *** p < 0.001.
The experiment was evaluated according to the method described earlier. It was performed in a soundproof chamber with a 30-min habituation period 24 h before the procedure. The open field apparatus consisted of four black, octagonal, stainless steel arenas (diameter: 80 cm) with 30 cm high walls. Each arena was divided into a peripheral and central sector. The peripheral sector was defined as the region within 20 cm from the walls. The approximate light intensity was 15 lx in the central point of the arena and 4 lx close to its walls.
Individual rats were placed in the central part of the open field and allowed to explore the whole arena for 30 min under dim light (approximately 10 lx) and continuous white noise (65 dB). Forward locomotion (cm/30 min) was registered in 10-min intervals for 30 min and analyzed with the aid of a computerized video tracking system (Videomot, TSE, Bad Homburg, Germany). The arenas were cleaned between tests with 20% (v/v) alcohol and allowed to dry.
The tested compound was administered ip 30 min before the experiment at the dose range of 0.3–30.0 mg/kg, and MK-801 (0.3 mg/kg,) was administered ip 15 min before the procedure. […]

mice = assay: Marble burying test in mice; type: in vivo
Experimental: Figure 3 The effect of JJGW08 and aripiprazole on the number of buried marbles by mice. Mice were placed individually in cages with a 5 cm bedding layer, where 20 glass balls were placed. The number of buried marbles after 30 min of the test was counted. JJGW08 was administered intraperitoneally (ip) 30 min before the test. The control group received 0.9% NaCl solution (ip) or 1% Tween (ip) for aripiprazole. Values are expressed as means ± SD in the case of one-way ANOVA (aripiprazole) or median with interquartile range in the case of Kruskal–Wallis test (JJGW08), n = 8–10 mice per group. Statistical analysis: one-way ANOVA (Newman–Keuls post hoc), and Kruskal–Wallis test (Dunn post hoc), * p < 0.05, ** p < 0.01, *** p < 0.001.
The test was conducted according to the method described by Broekkamp et al. with minor modifications. Mice were placed individually in plastic cages, identical to their home cages, that contained a layer of bedding and 20 glass balls (1.6 cm in diameter) arranged in a pattern 4 × 5. After 30 min of the experiment, the mice were removed from the cages, and the number of balls buried to at least 2/3 of their size was counted.

D2 receptors = tested on: D2 receptors; set-up: method as in doi:10.1016/j.molstruc.2022.134585; settings: cited from earlier work

COc1ccccc1N1CCN(CCCCCOc2ccccc2C(N)=O)CC1.Cl [JJGW08, 2-{5-[4-(2-metoksyfenylo)piperazin-1-ylo]pentoxy}benzamide hydrochloride]
reduction of MK-801-induced hyperlocomotion in the open field (rats): 36–82%
reduction of the number of buried marbles (mice; 1.25 mg/kg ip): 65%
reduction of the number of buried marbles (mice; 2.5 mg/kg ip): 84%
affinity (in words) (D2 receptors): high affinity
